{
  "source": "patent US9814727B2",
  "about": "“Piperazine phenothiazine derivatives for treating spasticity” (UNIVERSITE D'AIX-MARSEILLE, priority 2014, dated 2017)",
  "key": {"[1]": {"tested_on": "lumbar motoneurons (MNs)", "assay": "Intracellular recordings of lumbar motoneurons in the in vitro spinal cord preparation (EIPSP)", "type": "cell-based, rat", "conditions": "10 μM", "description": "Spinal cords isolated from neonatal rats on post natal day 4 or 5 were dissected together with spinal roots. Briefly, after decapitation and evisceration, the spinal cord was exposed by dorsal laminectomy and acute removal of the dura in a cold artificial cerebrospinal fluid (ACSF; containing (in mM): 130 NaCl, 4 KCl, 3.75 CaCl2, 1.3 MgSO4, 0.58 NaH2PO4, 25 NaHCO3 and 10 glucose (all compounds were from Sigma); oxygenated with 95% O2/5% CO2, pH=7.4). The cord, from sacral segments up to T8, was then removed from the vertebral column together with peripheral roots. The preparation was then transferred to the recording chamber where it was pinned down, ventral side up, in sylgard (Dow-Corning; USA)-covered recording chamber, and continuously perfused with the ACSF solution. After removing the pia, we recorded lumbar motoneurons (MNs) intracellularly using glass microelectrodes filled with 2 M K-acetate (70 to 100-MΩ resistance). We recorded intracellular potentials in the discontinuous current-clamp (DCC) mode (Axoclamp 2B amplifier; Digidata 1200 interface; pClamp9 software; Axon Instruments, Sunnyvale, Calif., USA). We used glass suction electrode to stimulate the ipsilateral ventral funiculus 2 to 3 segments rostral to the recorded one. Such stimulations induced GABAA- and Gly-mediated Inhibitory Postsynaptic Potentials (IPSPs) in the presence of DL-2-amino-5-phosphonovaleric acid (DL-APV, 50 μM) and 6-cyano-7-nitroquinoxaline-2,3-dione (CNQX, 10 μM) (Bos et al., 2013; Boulenguez et al., 2010; Jean-Xavier et al., 2006). We recorded IPSPs at various holding potentials (500-ms-long current pulses) and collected at least 20 values for each MN. We measured and plotted amplitudes of IPSPs against holding potentials and obtained EIPSP from the regression line.\nIn the in vitro spinal cord preparation, isolated from neonatal rat, a way to investigate KCC2 function is provided by recording motoneurons (MNs) intracellularly and measuring the chloride equilibrium potential that is given by the reversal potential of inhibitory synaptic potentials (EIPSP). The more hyperpolarized the value of EIPSP, the lower the intracellular concentration of chloride ions and, as a result, the stronger the KCC2 function. The inventors have examined the effect of 10 μM Prochlorperazine (2) on EIPSP of lumbar MNs in P4-6 rats (FIG. 3). It hyperpolarized EIPSP within 5-10 min and measurements were done 20-25 min after the onset of Prochlorperazine (2) application."}, "[2]": {"tested_on": "reciprocal inhibition of lumbar MNs", "assay": "In vitro extracellular recordings and evaluation of reciprocal inhibition after neonatal spinal cord transection", "design": "species or system rat", "description": "Rats were deeply anesthetized by hypothermia at birth. A dorsal midline skin incision was made over the thoracic vertebra and the overlying fascia and muscles were retracted to expose the dorsal surface of the vertebrae. After a partial laminectomy, the spinal cord was completely transected at the T8 thoracic level with scissors. The lesion cavity was then filled with sterile absorbable local hemostat Surgicoll (Medical Biomaterial Products; Neustadt-Glewe, Germany). The skin incision was closed with sutures (PDSII 6.0, Ethicon; Johnson and Johnson; Brussels, Belgium) and covered by Steri-Strips (3M Health Care; St. Paul, Minn.). The whole surgical procedure took less tan 10 min after anesthesia. Sham-operated rats were treated in the same way except […] the spinal cord transection. Following surgery, the neonates recovered 45 min in a warm environment maintaining the temperature at 35±1° C. Wounds were then cleaned and rats were kept in a warm environment for 40 min before returning to the nest.\nSpinal cords isolated from neonatal rats were prepared as described in section 1.2 until “recording”.\nExtracellular electrophysiological signals of lumbar VRs and DRs responses were recorded by contact stainless steel electrodes insulated from the bath with vaseline. […]"}, "[3]": {"tested_on": "paw withdrawal threshold", "assay": "Von Frey test following spinal cord injury (mechanical hyperalgesia)", "type": "in vivo, rat", "conditions": "for effect on mechanical hyperalgesia (paw withdrawal threshold): 21 days after injury", "procedure": "Thoracic spinal unilateral hemisection in rats was used as a model of SCI. Adult female Wistar Rats (Charles River) were anaesthetized intraperitoneally with 50 mg/kg ketamine (Imalgen®, Merial, Duluth, Ga., USA) and 0.25 mg/kg Medetomidine (Domitor®, Janssen Pharmaceutica, Beerse, Belgium). The antibiotic Amoxycyline (Duphamox LA®, Pfizer, 150 mg/kg) was injected subcutaneously before the surgery. The skin was cut longitudinally over T8-T10 vertebra and a local anesthetic (2% Procaine hydrochloride, Pharmy H, Saint-Germain-en-Laye, France) was injected intramuscularly before cuting the paravertebral muscles. A laminectomy was performed at vertebral segment T9. The spinal cord was hemisected on the left side with microscissors at the level of the T8 spinal segment. Finally, paravertebral muscles and skin were sutured and rats were treated with buprenorphine for analgesia (1 injection before awakening from anaesthesia and 2 more injections over the next 24 h period). Aspirin was diluted in their water bottles for 3 days (aspegic, 200 mg in 150 ml). The rats weight, temperature and water intake were checked and their bladder was emptied manually twice a day until recovery of autonomy.\nAt day 21 post lesion, the rats were tested once with Von Frey hair and plantar test in order to have their baseline values. […] Then the effects of the drug was measured alternatively on mechanical and thermal hyperalgesia every 15 min, that is at […] after injection, respectively.\nThe plantar surface of the left, then right hind paws were probed using von Frey monofilaments £Bioseb, Paris, France) which apply different calibrated forces when they bent. The test started by applying a Von Frey hair of 8 g for 3 sec, and the 50% withdrawal thresholds of each hindlimb in response to tactile stimulation were measured using the up and down method (Chaplan et al., 1994)."}},
  "data": [
    {"smiles": "CN1CCN(CCCN2c3ccccc3Sc3ccc(Cl)cc32)CC1", "note": "[compound 2, 2-chloro-10-[3-(4-methyl-1-piperazinyl)propyl]-10H-phenothiazine]", "values": [
      {"measurement": "change of driving force (EIPSP-Vrest)", "setting": "[1]; 20-25 min, n=6", "result": "−3.5", "unit": "mV"},
      {"measurement": "effect on resting membrane potential (Vrest)", "setting": "[1]; 20-25 min, n=6", "result": "no significant impact"},
      {"measurement": "hyperpolarizing shift of EIPSP compared to control", "setting": "[1]; 20-25 min after onset of application, P4-6 rats, n=6", "result": "−3.3", "unit": "mV"},
      {"measurement": "time to hyperpolarization of EIPSP", "setting": "[1]; P4-6 rats", "result": "5 to 10", "unit": "min"},
      {"measurement": "strength of reciprocal inhibition relative to intact spinal cord", "setting": "[2]; 200 μM (so in the source), n=6", "result": "inhibition comparable to an intact spinal cord"},
      {"measurement": "strength of reciprocal inhibition", "setting": "[2]; 5, 10 and 20 μM, 20 min after onset of application, P5-7 rats transected at birth", "result": "increased the strength of reciprocal inhibition in a dose-dependent manner"},
      {"measurement": "time after injection at which effects were significant", "setting": "[3]; i.p. or i.v., Von Frey test", "result": 40, "unit": "min"},
      {"measurement": "effect on mechanical hyperalgesia (paw withdrawal threshold)", "setting": "[3]; intraperitoneally 2 mg/kg", "result": "temporarily reduces mechanical hyperalgesia"},
      {"measurement": "effect on mechanical hyperalgesia (paw withdrawal threshold)", "setting": "[3]; intravenously 50 ng/kg", "result": "temporarily reduces mechanical hyperalgesia"}
    ]}
  ]
}
